We go through two molecules from publication PMC8347595, “N-Skatyltryptamines—Dual 5-HT6R/D2R Ligands with Antipsychotic and Procognitive Potential” (Molecules, 2021).

The nature of one data set: in vitro. The settings on record: PAMPA, pH 7.4. On the technique in general: PAMPA measures passive passage across an artificial lipid membrane.

Broadly, the Papp is a coefficient for how fast a substance crosses the barrier. In the data set “in vitro”, `Brc1ccc2c(CNCCc3c[nH]c4ccccc34)c[nH]c2c1` [Compound 15] showed a Papp at 5 h, 200 µM of 2.42 ± 0.92 ×10⁻⁶ cm/s.
Take `Brc1cccc2c(CNCCc3c[nH]c4ccccc34)c[nH]c12` [Compound 18]: the “PAMPA Pe ± SD” value in the data set “PAMPA permeability assay” (200 µM, PBS pH 7.4, 5 h, triplicate) is on record as 3.90 10^−6 cm/s. This molecule displayed an apparent permeability coefficient (Papp) at 5 h, 200 µM in “PAMPA permeability assay” (PAMPA, pH 7.4) of 3.9 ± 0.56 ×10⁻⁶ cm/s. Further, the permeability in words result in “PAMPA permeability assay” (compared to caffeine and norfloxacin) is listed as “rather low Pe value but still higher than norfloxacin”.
